# Measurements reported in patent US20120165309A1, “HETERO RING DERIVATIVE” (Astellas Pharma Inc., priority 2009, published 2012).
# Counter-ions that a name gives are not always drawn.
# Columns and labels:
# human PI3Kδ enzyme = biological target: T1, human PI3Kδ enzyme (Homo sapiens, UniProt O00329); test: PI3Kδ enzyme inhibitory activity (PI3-Kinase HTRF Assay kit); format: biochemical; settings: human PI3Kδ 10 ng/well, ATP 30 μM, PIP2 10 μM, room temperature 30 minutes
# T1 construct: purchased Millipore Corporation 14-604
# T1 sequence (O00329 whole entry): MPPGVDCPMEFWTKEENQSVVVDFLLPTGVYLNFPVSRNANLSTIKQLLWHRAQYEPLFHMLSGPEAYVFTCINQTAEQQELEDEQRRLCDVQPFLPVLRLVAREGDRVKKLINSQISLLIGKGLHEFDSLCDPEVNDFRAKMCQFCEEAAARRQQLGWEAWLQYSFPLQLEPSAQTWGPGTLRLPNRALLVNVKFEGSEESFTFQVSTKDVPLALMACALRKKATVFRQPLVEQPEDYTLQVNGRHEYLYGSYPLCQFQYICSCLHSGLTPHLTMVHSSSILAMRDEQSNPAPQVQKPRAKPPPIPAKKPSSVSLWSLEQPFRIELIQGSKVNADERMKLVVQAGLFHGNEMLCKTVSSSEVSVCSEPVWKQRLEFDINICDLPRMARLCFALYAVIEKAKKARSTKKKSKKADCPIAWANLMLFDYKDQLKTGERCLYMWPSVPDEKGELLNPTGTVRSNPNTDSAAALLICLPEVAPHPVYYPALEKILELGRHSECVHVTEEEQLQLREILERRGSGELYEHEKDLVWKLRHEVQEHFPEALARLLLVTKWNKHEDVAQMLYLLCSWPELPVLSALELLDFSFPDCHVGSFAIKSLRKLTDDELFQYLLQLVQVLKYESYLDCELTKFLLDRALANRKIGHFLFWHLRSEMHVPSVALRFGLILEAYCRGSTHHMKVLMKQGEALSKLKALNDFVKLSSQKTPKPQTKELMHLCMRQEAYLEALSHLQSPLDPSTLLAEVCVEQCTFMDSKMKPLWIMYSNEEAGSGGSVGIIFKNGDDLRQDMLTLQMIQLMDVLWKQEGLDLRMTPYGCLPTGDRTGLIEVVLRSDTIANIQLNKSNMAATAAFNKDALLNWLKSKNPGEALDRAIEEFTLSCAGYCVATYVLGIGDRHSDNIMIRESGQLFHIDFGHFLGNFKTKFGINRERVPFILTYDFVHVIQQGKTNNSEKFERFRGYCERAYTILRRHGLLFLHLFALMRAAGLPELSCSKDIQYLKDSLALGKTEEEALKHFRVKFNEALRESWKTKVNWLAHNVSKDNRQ
# T1 sequence (P27986 whole entry partner): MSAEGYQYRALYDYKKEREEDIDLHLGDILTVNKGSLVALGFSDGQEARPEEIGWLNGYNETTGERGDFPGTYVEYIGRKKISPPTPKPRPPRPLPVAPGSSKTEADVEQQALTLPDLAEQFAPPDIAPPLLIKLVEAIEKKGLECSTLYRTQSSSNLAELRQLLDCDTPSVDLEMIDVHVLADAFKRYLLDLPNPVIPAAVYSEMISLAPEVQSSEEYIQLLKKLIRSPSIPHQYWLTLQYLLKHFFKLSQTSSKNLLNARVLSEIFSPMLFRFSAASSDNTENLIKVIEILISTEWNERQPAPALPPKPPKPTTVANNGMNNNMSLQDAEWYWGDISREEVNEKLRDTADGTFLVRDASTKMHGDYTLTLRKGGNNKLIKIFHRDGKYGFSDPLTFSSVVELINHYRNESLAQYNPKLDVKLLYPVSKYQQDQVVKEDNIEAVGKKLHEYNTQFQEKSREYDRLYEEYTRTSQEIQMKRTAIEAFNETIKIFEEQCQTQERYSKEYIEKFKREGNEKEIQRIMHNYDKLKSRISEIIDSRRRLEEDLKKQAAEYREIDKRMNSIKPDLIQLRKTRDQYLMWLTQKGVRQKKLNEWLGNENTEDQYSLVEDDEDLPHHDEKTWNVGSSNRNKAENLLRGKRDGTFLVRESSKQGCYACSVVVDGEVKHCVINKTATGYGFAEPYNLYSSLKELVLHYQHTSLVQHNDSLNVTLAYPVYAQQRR
# Method: 1. PI3Kδ Enzyme Inhibitory Activity
# For the experiment, a PI3-Kinase HTRF Assay kit (Millipore Corporation, Catalogue No. 33-016) and a human PI3Kδ enzyme (Millipore Corporation, Catalogue No. 14-604) were used. The measurement method was in accordance with the appended instructions. The overview thereof is as follows.
# PI3Kδ (10 ng/well), phosphatidylinositol-4,5-bisphosphate (10 μM), ATP (30 μM), and the test compound were mixed in a 384-well plate (total 20 μL), and incubated at room temperature for 30 minutes. EDTA and biotinylated phosphatidylinositol-3,4,5-triphosphate were added thereto to stop the reaction. Thereafter, a Europium labeled anti-GST antibody, a GST bond GRP1 PH domain, and streptavidin-APC were added thereto, followed by incubation overnight. An HTRF ratio was measured using an HTRF plate reader. The IC50 value of the compound was calculated, taking the inhibition rate without addition of the enzyme as 100% and the inhibition rate without addition of the test compound as 0%, by means of a logistic method.
# (§1) In the Table, Ex represents Example Compound No. as described later, PI3Kδ represents the IC50 value (nM) of a PI3Kδ enzyme inhibitory activity, and PI3Kα represents the IC50 value (nM) of a PI3Kα enzyme inhibitory activity.
# Human PI3Kα = biological target: T2, Human PI3Kα (Homo sapiens, UniProt P42336); test: PI3Kα enzyme inhibitory activity (Kinase-Glo Plus luminescence); format: biochemical; settings: Human PI3Kα 12 ng/well, phosphatidylinositol 0.2 μg/well, 37° C. for 3 hours
# T2 construct: purchased Millipore Corporation 14-602
# T2 sequence (P42336 whole entry): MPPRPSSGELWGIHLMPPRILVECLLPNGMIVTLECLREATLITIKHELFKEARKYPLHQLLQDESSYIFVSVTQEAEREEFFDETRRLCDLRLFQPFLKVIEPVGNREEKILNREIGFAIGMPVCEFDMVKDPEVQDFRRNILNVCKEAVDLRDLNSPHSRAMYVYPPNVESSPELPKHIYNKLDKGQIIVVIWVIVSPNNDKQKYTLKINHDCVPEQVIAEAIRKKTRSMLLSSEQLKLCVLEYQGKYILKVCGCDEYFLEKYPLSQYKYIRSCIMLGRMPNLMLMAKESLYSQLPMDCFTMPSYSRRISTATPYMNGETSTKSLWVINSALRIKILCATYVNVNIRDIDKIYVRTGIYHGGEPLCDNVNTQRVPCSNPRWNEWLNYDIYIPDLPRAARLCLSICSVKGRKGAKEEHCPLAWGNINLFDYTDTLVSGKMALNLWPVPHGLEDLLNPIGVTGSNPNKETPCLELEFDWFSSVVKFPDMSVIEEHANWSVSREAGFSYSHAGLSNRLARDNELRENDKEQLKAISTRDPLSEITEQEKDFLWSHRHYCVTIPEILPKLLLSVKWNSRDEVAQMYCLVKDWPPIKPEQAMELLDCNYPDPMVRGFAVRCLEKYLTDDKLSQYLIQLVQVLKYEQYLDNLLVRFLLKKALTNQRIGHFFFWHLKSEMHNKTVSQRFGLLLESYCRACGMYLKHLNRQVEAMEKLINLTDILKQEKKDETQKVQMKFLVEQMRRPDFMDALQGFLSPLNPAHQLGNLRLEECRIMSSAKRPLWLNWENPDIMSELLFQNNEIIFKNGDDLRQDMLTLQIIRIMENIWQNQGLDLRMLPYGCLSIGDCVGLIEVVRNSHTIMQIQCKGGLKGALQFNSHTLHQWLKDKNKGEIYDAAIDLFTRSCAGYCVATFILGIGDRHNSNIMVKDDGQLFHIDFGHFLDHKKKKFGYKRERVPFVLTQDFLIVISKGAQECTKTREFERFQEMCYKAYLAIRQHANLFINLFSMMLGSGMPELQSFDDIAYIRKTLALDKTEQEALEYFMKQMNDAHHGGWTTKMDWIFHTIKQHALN
# T2 sequence (P27986 whole entry partner): as the sequence (P27986 whole entry partner) above
# Method: 2. PI3Kα Enzyme Inhibitory Activity
# Human PI3Kα (12 ng/well, Millipore Corporation, Catalogue No. 14-602), phosphatidylinositol (0.2 μg/well), and the test compound were mixed in a 384-well plate in a reaction buffer (50 mM Hepes, 10 mM NaCl, 10 mM MgCl2, 2 mM EGTA, 2 mM DTT, pH 7.3) (total 10 μl), and incubated at 37° C. for 3 hours. After the reaction, 10 μL of a Kinase-Glo Plus reagent (Promega, Catalogue No. V3772) was added thereto, and a luminescence was measured with a luminometer. The IC50 value of the compound was calculated, taking the inhibition rate without addition of the enzyme as 100% and the inhibition rate without addition of the test compound as 0%, by a logistic method.
# as §1
# IL-2 production = test: Rat in vivo IL-2 production inhibition test (Concanavalin A induced); settings: po, male LEW/CrlCrlj rats, 10 mg/kg orally, 2 hours before Concanavalin A 15 mg/kg i.v., blood IL-2 at 3 hours after Concanavalin A, read-out: IL-2 production inhibition activity (inhibition rate vs vehicle control)
# Method: 3. Rat In vivo IL-2 Production Inhibition Test
# For the experiment, male LEW/CrlCrlj rats (Charles River Laboratories, Japan, Inc.) (6-week old, body weight 130 to 180 g) were used. The test compound was suspended in a 0.5% methyl cellulose solution and orally administered at 5 mL/kg. IL-2 production was induced by tail vein injection of Concanavalin A (Funakoshi Corporation, Catalogue No. L-1000) at a dose of 15 mg/kg.
# The test was carried out according to the protocol shown below. At 2 hours or 16 hours before administration of Concanavalin A, the test compound was orally administered to rats. At 3 hours after administration of Concanavalin A, blood was collected. The IL-2 concentration in blood was quantified using an ELISA kit (R&D Systems, Inc., Catalogue No. DY502E). An inhibition rate was calculated from the amount of IL-2 produced in a group administered with the test compound with respect to the amount of the IL-2 produced of a control group administered with a vehicle.
# [1] = tested on: Spleen cells (B cell proliferation); test: Rat B cell proliferation inhibition test (anti-rat IgM, [3H]thymidine); format: cell-based; settings: anti-rat IgM 3 μg/well, 48 hours culture, [3H]thymidine uptake
# Method: 4. Rat B Cell Proliferation Inhibition Test
# Spleen cells (1.0×10^5 cells/well) prepared from male LEW/CrlCrlj rats (Charles River Laboratories, Japan, Inc.), mouse F(ab′)2 fragment anti-rat IgM (3 μg/well, SouthernBiotech Associates, Inc., Catalogue No. 3082-14) and the test compound dissolved in DMSO (final DMSO concentration 0.1%) were mixed in a 96-well plate using a 10% FCS-containing RPMI-1640 culture medium (total 200 μL). They were cultured in a CO2 incubator for 48 hours and [^3H]thymidine (925 GBq/mmol, Moravek Biochemicals, Inc., Catalogue No. MT6038) was added thereto at 0.037 MBq/well at 4 hours before completion of culture. Cells were harvested in a GF/C glass filter using a cell harvester, and a radioactivity on the filter was measured using a liquid scintillation counter. The IC50 value of the compound was calculated, taking the dpm (disintegration per minute) without addition of IgM as an inhibition rate of 100% and the dpm without addition of the test compound as an inhibition rate of 0%, by a logistic method.
IC50 (human PI3Kδ enzyme),IC50 (Human PI3Kα),Structure (SMILES),inhibition in vivo at 10 mg/kg (IL-2 production),IC50 [1]
33 nM,2000 nM,"CN(C)[C@H]1CC[C@H](Nc2nc(N3CCOCC3)nc(-n3c(C(F)F)nc4ccccc43)n2)CC1 [Example 4, trans-N′-{4-[2-(difluoromethyl)-1H-benzimidazol-1-yl]-6-morpholin-4-yl-1,3,5-triazin-2-yl}-N,N-dimethylcyclohexane-1,4-diamine]",83%,1.8 nM
14 nM,930 nM,"O=C1CCCN1[C@H]1CC[C@H](Nc2nc(N3CCOCC3)cc(-n3c(C(F)F)nc4ccccc43)n2)CC1 [Example 11, 1-[trans-4-({4-[2-(difluoromethyl)-1H-benzimidazol-1-yl]-6-morpholin-4-ylpyrimidin-2-yl}amino)cyclohexyl]pyrrolidin-2-one]",80%,6.1 nM
5.2 nM,> 3000 nM,"CN(C)CC(=O)N[C@H]1CC[C@H](Oc2cc(-n3c(C(F)F)nc4ccccc43)nc(N3CCOCC3)n2)CC1 [Example 24, N-[trans-4-({6-[2-(difluoromethyl)-1H-benzimidazol-1-yl]-2-morpholin-4-ylpyrimidin-4-yl}oxy)cyclohexyl]-N,N-dimethylglycinamide hydrochloride]",79%,4.2 nM
,1200 nM,CN(C)CC(=O)N[C@H]1CC[C@H](Nc2nc(N3CCOCC3)nc(-n3c(C(F)F)nc4ccccc43)n2)CC1 [Example 40],94%,
44 nM,> 3000 nM,CN(C)CC(=O)N[C@H]1CC[C@H](Nc2cc(-n3c(C(F)F)nc4ccccc43)nc(N3CCOCC3)n2)CC1 [Example 46],71%,5.2 nM
,,CC(=O)N[C@H]1CC[C@H](Nc2nc(N3CCOCC3)cc(-n3c(C(F)F)nc4ccccc43)n2)CC1 [Example 194],89%,
,,FC(F)c1nc2ccccc2n1-c1cc(N2CCOCC2)nc(NC[C@H]2CC[C@H](N3CCOCC3)CC2)n1 [Example 201],76%,
,,FC(F)c1nc2ccccc2n1-c1cc(N2CCOCC2)nc(NC[C@H]2CC[C@H](N3CCCCC3)CC2)n1 [Example 202],80%,
4.4 nM,3300 nM,CN(CCF)[C@H]1CC[C@H](CNc2nc(N3CCOCC3)cc(-n3c(C(F)F)nc4ccccc43)n2)CC1 [Example 206],83%,4.1 nM
14 nM,6000 nM,COCCN(C)[C@H]1CC[C@H](CNc2nc(N3CCOCC3)cc(-n3c(C(F)F)nc4ccccc43)n2)CC1 [Example 219],78%,3.5 nM
9.4 nM,1600 nM,CC(C)(O)[C@@H]1CCCN1C1CCC(CNc2nc(N3CCOCC3)cc(-n3c(C(F)F)nc4ccccc43)n2)CC1 (some centres unmarked) [Example 490],,0.76 nM
4.5 nM,570 nM,C=CCN(C(C)COC)[C@H]1CC[C@H](CNc2nc(N3CCOC[C@@H]3C)cc(-n3c(C(F)F)nc4ccccc43)n2)CC1 (some centres unmarked) [Example 491],,1.8 nM
14 nM,6700 nM,CN(CC(C)(C)O)[C@H]1CC[C@H](CNc2cc(-n3c(C(F)F)nc4ccccc43)nc(N3CCOCC3)n2)CC1 [Example 495],,1.7 nM
17 nM,7600 nM,COCCN[C@H]1CC[C@H](CNc2cc(-n3c(C(F)F)nc4ccccc43)nc(N3CCOCC3)n2)CC1 [Example 496],,1.7 nM
14 nM,> 10000 nM,CN1CCC[C@H]1C(=O)N[C@H]1CC[C@H](Oc2cc(-n3c(C(F)F)nc4ccccc43)nc(N3CCOCC3)n2)CC1 [Example 500],,2.7 nM
4.1 nM,450 nM,CC(N(C)[C@H]1CC[C@H](CNc2nc(N3CCOC[C@@H]3C)cc(-n3c(C(F)F)nc4ccccc43)n2)CC1)C(C)(C)O (some centres unmarked) [Example 505],,0.46 nM
4.3 nM,590 nM,CC(N(C)[C@H]1CC[C@H](CNc2nc(N3CCOC[C@H]3C)cc(-n3c(C(F)F)nc4ccccc43)n2)CC1)C(C)(C)O (some centres unmarked) [Example 506],,0.75 nM
4.9 nM,490 nM,COCC(C)N(C)[C@H]1CC[C@H](CNc2nc(N3CCOC[C@H]3C)cc(-n3c(C(F)F)nc4ccccc43)n2)CC1 (some centres unmarked) [Example 507],,0.38 nM
4.6 nM,620 nM,CCN(C(C)COC)[C@H]1CC[C@H](CNc2nc(N3CCOC[C@H]3C)cc(-n3c(C(F)F)nc4ccccc43)n2)CC1 (some centres unmarked) [Example 508],,0.37 nM
36 nM,> 10000 nM,FC[C@H]1CCCN1[C@H]1CC[C@@H](CNc2cc(-n3c(C(F)F)nc4ccccc43)nc(N3CCOCC3)n2)CC1 [Example 510],,18 nM
4.7 nM,2000 nM,FC[C@H]1CCCN1[C@H]1CC[C@H](CNc2cc(-n3c(C(F)F)nc4ccccc43)nc(N3CCOCC3)n2)CC1 [Example 511],,1.2 nM
23 nM,> 10000 nM,COC[C@@H]1CCCN1[C@H]1CC[C@@H](CNc2cc(-n3c(C(F)F)nc4ccccc43)nc(N3CCOCC3)n2)CC1 [Example 512],,10 nM
3.5 nM,3100 nM,COC[C@@H]1CCCN1[C@H]1CC[C@H](CNc2cc(-n3c(C(F)F)nc4ccccc43)nc(N3CCOCC3)n2)CC1 [Example 513],,0.64 nM
6 nM,1200 nM,FC[C@@H]1CCCN1[C@H]1CC[C@H](CNc2nc(N3CCOCC3)cc(-n3c(C(F)F)nc4ccccc43)n2)CC1 [Example 515],,4.1 nM
14 nM,5700 nM,FC(F)c1nc2ccccc2n1-c1cc(NC[C@H]2CC[C@H](N3CCC[C@H]3CN3CCCC3)CC2)nc(N2CCOCC2)n1 [Example 527],,2.8 nM
7.6 nM,2200 nM,FC[C@@H]1CCN1[C@H]1CC[C@H](CNc2cc(-n3c(C(F)F)nc4ccccc43)nc(N3CCOCC3)n2)CC1 [Example 539],,0.84 nM
50 nM,5500 nM,C[C@@H]1COCCN1[C@H]1CC[C@H](CNc2cc(-n3c(C(F)F)nc4ccccc43)nc(N3CCOCC3)n2)CC1 [Example 546],,2.2 nM
